According to ChEMBL document CHEMBL1269003, “Design and synthesis of tetrahydropyridothieno[2,3-d]pyrimidine scaffold based epidermal growth factor receptor (EGFR) kinase inhibitors: the role of side chain chirality and Michael acceptor group for maximal potency” (J Med Chem, 2010):
Activity calls are given as the source filed them. The rule behind the calls is not given here.

Legend:
[1] = molecular target: T1, Epidermal growth factor receptor (Homo sapiens, UniProt P00533); assay: Inhibition of EGFR at 20 uM
T1 sequence (P00533 whole entry): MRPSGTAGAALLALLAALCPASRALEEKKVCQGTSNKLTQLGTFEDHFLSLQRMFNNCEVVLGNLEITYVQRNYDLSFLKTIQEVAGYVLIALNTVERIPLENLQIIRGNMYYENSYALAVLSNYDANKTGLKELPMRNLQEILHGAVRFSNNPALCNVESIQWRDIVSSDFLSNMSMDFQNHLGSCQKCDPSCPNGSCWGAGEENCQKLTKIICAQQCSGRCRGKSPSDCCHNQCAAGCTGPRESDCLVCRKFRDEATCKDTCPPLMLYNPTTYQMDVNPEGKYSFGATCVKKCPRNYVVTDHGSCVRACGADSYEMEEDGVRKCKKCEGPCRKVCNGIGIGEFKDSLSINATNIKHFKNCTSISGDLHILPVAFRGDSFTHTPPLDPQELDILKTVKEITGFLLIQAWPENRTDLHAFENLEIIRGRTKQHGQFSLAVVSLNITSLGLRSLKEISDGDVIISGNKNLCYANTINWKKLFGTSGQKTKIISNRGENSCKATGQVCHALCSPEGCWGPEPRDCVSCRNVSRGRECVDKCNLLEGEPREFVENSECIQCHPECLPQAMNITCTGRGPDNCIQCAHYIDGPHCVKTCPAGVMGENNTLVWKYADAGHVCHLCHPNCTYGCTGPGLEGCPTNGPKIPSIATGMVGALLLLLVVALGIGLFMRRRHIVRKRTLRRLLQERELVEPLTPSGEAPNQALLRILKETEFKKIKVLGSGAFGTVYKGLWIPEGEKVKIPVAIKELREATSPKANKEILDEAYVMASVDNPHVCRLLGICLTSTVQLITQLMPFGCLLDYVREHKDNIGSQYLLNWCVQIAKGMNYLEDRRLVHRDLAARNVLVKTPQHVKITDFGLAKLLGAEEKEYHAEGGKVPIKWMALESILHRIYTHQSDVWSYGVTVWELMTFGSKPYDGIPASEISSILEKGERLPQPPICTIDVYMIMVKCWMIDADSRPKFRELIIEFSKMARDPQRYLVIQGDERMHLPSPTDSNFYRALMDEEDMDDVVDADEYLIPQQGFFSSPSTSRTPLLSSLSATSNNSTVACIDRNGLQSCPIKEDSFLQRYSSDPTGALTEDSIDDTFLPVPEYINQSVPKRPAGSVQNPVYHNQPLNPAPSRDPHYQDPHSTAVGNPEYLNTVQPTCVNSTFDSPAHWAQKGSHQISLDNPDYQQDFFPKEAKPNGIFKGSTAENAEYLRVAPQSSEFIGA

[2] = tested on: Epidermal growth factor receptor (Homo sapiens), P00533 [L858R,T790M]; details: 10 uM
Chain of Epidermal growth factor receptor (Homo sapiens), P00533 [L858R,T790M] (P00533 whole entry T790M/L858R, looked up): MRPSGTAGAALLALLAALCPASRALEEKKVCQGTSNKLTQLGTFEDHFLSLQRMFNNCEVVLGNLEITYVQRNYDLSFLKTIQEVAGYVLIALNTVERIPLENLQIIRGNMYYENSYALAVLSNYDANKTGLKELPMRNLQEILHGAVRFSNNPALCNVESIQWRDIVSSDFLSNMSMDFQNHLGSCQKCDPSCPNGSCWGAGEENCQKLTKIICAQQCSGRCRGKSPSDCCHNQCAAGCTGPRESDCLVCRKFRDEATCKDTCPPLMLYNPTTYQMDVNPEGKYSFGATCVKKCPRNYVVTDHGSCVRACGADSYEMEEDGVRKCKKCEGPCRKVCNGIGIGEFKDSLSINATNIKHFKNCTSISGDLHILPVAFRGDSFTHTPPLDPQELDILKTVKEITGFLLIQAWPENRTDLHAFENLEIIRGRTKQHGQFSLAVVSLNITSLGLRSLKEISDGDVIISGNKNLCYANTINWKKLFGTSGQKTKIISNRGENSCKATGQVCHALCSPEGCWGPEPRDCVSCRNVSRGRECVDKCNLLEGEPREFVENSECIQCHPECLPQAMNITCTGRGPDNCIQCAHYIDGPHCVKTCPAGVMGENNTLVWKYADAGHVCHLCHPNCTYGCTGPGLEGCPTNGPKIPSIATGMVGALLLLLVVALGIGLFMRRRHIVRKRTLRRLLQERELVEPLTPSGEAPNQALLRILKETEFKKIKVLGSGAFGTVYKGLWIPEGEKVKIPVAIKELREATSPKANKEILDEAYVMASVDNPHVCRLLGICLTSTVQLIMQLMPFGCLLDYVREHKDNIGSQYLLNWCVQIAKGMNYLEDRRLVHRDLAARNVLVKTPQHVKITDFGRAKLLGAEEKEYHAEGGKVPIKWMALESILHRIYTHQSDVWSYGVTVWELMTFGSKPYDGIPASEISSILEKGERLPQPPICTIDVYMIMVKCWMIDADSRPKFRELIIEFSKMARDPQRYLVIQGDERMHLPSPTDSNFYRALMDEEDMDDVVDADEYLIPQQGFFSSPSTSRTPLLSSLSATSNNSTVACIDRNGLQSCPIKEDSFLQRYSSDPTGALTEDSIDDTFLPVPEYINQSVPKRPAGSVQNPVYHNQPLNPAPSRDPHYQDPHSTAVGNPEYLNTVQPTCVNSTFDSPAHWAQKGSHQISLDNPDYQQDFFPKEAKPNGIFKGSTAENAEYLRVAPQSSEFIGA

[3] = Antiproliferative activity against human HCC827 cells by MTS assay
[4] = molecular target: Epidermal growth factor receptor (Homo sapiens, UniProt P00533, L858R/T790M)
Chain of Epidermal growth factor receptor (Homo sapiens, UniProt P00533, L858R/T790M) (P00533 25-1210 T790M/L858R limits assumed): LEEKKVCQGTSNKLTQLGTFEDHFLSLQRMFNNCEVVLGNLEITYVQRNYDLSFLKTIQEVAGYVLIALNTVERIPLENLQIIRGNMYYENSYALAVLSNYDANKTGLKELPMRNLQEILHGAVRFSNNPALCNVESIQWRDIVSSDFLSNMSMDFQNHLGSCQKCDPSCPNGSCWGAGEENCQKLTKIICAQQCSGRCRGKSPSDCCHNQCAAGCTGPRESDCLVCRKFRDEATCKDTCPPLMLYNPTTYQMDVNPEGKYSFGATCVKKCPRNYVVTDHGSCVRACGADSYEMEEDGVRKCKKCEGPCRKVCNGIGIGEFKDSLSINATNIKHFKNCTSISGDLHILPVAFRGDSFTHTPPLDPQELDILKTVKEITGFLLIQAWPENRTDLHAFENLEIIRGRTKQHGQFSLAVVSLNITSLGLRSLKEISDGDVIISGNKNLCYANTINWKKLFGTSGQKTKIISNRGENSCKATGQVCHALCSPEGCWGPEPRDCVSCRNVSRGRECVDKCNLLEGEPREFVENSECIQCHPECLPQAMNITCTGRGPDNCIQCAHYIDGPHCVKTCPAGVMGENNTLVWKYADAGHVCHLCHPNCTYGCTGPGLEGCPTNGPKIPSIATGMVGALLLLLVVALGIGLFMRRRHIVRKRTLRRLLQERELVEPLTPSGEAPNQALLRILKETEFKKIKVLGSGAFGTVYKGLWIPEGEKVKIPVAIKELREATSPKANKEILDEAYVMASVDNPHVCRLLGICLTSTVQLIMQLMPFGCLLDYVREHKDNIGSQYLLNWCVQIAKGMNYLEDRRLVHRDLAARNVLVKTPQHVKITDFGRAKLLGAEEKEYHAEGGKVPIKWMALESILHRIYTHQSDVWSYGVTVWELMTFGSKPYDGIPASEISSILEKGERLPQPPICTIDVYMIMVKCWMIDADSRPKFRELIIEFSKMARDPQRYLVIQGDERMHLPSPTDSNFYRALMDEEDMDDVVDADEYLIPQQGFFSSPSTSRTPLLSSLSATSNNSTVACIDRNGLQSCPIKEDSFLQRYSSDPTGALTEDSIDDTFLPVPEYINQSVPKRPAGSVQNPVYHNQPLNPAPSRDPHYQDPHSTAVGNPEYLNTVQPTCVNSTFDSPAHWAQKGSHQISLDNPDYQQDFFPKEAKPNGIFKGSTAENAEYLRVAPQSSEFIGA

[5] = molecular target: T1, Epidermal growth factor receptor
[6] = molecular target: T1, Epidermal growth factor receptor; details: 20 uM
[7] = tested on: HCC827; assay: Antitumor activity against human HCC827 cells xenografted in mouse assessed as reduction of tumor growth at 100 mg/kg, iv for 5 days a week measured after 2 weeks; format: functional, organism-based; set-up: dose 100 mg/kg
[8] = tested on: HCC827; assay: Antitumor activity against human HCC827 cells xenografted in mouse assessed as reduction of tumor growth at 5 to 15 mg/kg, iv for 5 days a week measured after 2 weeks; format: functional, organism-based
[9] = AUC (0 to infinity) in Sprague-Dawley rat at 5 mg/kg, iv; format: ADME, organism-based; set-up: time infinity, dose 5 mg/kg, route intravenous; details: plasma
[10] = tested on: Rattus norvegicus; assay: Half life in Sprague-Dawley rat at 5 mg/kg, iv; format: ADME, organism-based; set-up: dose 5 mg/kg, route intravenous; details: in vivo

| Structure (SMILES) | inhibition [2] [%] | IC50 [4] [nM] | IC50 [5] [nM] | IC50 [3] [nM] | further results |
| --- | --- | --- | --- | --- | --- |
| CCC(=O)N1CCc2c(sc3ncnc(N[C@H](CO)c4ccccc4)c23)C1 | < 50 |  |  |  | IC50 [1]: > 20000 nM |
| COc1ccc(CNc2ncnc3sc4c(c23)CCCC4)cc1 |  |  |  |  | inhibition [6]: 1.1% |
| COc1cc2ncnc(Nc3ccc(F)c(Cl)c3)c2cc1OCCCN1CCOCC1 |  |  |  |  | Activity [7]: Active |
| CCN(CC)C/C=C/C(=O)N1CCc2c(sc3ncnc(NC(CO)c4ccccc4)c23)C1 (single isomer, unassigned) |  | 930 | 9 | 8 |  |
| OC[C@@H](Nc1ncnc2sc3c(c12)CCC3)c1ccccc1 |  |  | 1090 | 324 |  |
| OC[C@@H](Nc1ncnc2oc(-c3ccccc3)c(-c3ccccc3)c12)c1ccccc1 |  |  |  | 518 |  |
| c1ccc(CCNc2ncnc3sc4c(c23)CCCC4)cc1 |  |  |  |  | inhibition [6]: 44.3% |
| Fc1ccc(CNc2ncnc3sc4c(c23)CCCC4)cc1 |  |  |  |  | inhibition [6]: 52.7% |
| C=CS(=O)(=O)N1CCc2c(sc3ncnc(N[C@H](CO)c4ccccc4)c23)C1 |  | 2480 | 91 | 273 |  |
| OC[C@H](Nc1ncnc2sc3c(c12)CCCC3)c1ccccc1 |  |  |  |  | IC50 [1]: > 20000 nM |
| c1ccc(CNc2ncnc3sc4c(c23)CCCC4)cc1 | < 50 |  |  | > 10000 | inhibition [6]: 76.9% |
| CN(C)C/C=C/C(=O)N1CCc2c(sc3ncnc(NC(CO)Cc4ccccc4)c23)C1 (single isomer, unassigned) |  | 4110 | 149 | 32 |  |
| OCCNc1ncnc2sc3c(c12)CCCC3 |  |  |  |  | IC50 [1]: > 20000 nM |
| C=CC(=O)N1CCc2c(sc3ncnc(N[C@H](CC)c4ccccc4)c23)C1 |  | 2200 | 46 | 24 |  |
| CN(C)C/C=C/C(=O)N1CCc2c(sc3ncnc(N[C@@H](CO)c4ccccc4)c23)C1 | < 50 |  |  |  | IC50 [1]: > 20000 nM |
| C=CC(=O)N1CCc2c(sc3ncnc(N[C@H](C)c4ccccc4)c23)C1 |  | 739 | 20 | 19 |  |
| OC[C@@H](Nc1ncnc2sc3c(c12)CCNC3)c1ccccc1 | < 50 |  |  |  | IC50 [1]: > 20000 nM |
| c1ccc(CNc2ncnc3sc4c(c23)CCC4)cc1 |  |  |  |  | inhibition [6]: 69.1% |
| O=C(/C=C/c1ccccc1)N1CCc2c(sc3ncnc(N[C@H](CO)c4ccccc4)c23)C1 | < 50 |  | 3500 |  |  |
| C=CC(=O)N1CCc2c(sc3ncnc(N[C@@H](CO)c4ccccc4)c23)C1 | < 50 |  | 3060 |  |  |
| CC#CC(=O)N1CCc2c(sc3ncnc(N[C@H](CO)c4ccccc4)c23)C1 | < 50 | > 10000 | 1270 |  |  |

Further lines, with some results ahead:

| inhibition [2] [%] | IC50 [4] [nM] | IC50 [5] [nM] | Structure (SMILES) | IC50 [3] [nM] | further results |
| --- | --- | --- | --- | --- | --- |
|  | 100 | 8 | C=CC(=O)N1CCc2c(sc3ncnc(N[C@H](CO)c4ccccc4)c23)C1 | 3 |  |
|  | 305 | 70 | CN(C)C/C=C/C(=O)N1CCc2c(sc3ncnc(N[C@H](CO)c4ccccc4)c23)C1 | 2 | Activity [8]: Active; AUC(0-inf) [9]: 337 ng·h/mL; t1/2 [10]: 1.4 h |
| < 50 |  | 4880 | CN(C)C/C=C/C(=O)N1CCc2c(sc3ncnc(NCCO)c23)C1 |  |  |
| < 50 |  | 720 | OC[C@@H](Nc1ncnc2sc3c(c12)CCCC3)c1ccccc1 | 198 |  |
| < 50 |  | 89 | CN1CCN(C/C=C/C(=O)N2CCc3c(sc4ncnc(N[C@H](CO)c5ccccc5)c34)C2)CC1 | 38 |  |
|  |  | > 3240 | C[C@@H](Nc1ncnc2sc3c(c12)CCCC3)c1ccccc1 |  |  |
|  | 1400 | 21 | O=C(/C=C/CN1CCOCC1)N1CCc2c(sc3ncnc(NC(CO)c4ccccc4)c23)C1 (single isomer, unassigned) | 4 |  |
|  | 596 | 12 | C[C@@H](Nc1ncnc2sc3c(c12)CCN(C(=O)/C=C/CN(C)C)C3)c1ccccc1 | 2 |  |
